What all share (experiment): inhibition of tumour cell growth, NCI panel, 48 h
In test [1] the test system is SNB-75 CNS.
Test [2] deals with SK-MEL-2 melanoma.
Test [3] deals with HCT-116 colon.
The subject of test [4] is SNB-19 CNS.
In test [5] the test system is NCI-H522 lung.
Test [6] relates to HCC-2998 colon.
Test [7] concerns UACC-62 melanoma.
Test [8] relates to SN12C renal.

Among the data in PubChem BioAssay (NCI) are TGI and GI50 values, retold here.

The structures appear in SMILES notation. Values joined by “and” are separate entries in the source; they are usually repeats but may differ in a detail not shown here. Equal values may be shown once.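 Assay format: 96-well plates, 48-hour exposure. GI50 is the concentration that inhibits growth by half. The concentration for full growth arrest is given as TGI.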

Turning to `COC(=O)C1=COC2OC3C(C(C)O)C(=O)OC34C=CC1C24` (stereo not given), the TGI was greater than 100 µM in test [1]; greater than 100 µM in test [2]; greater than 100 µM in test [3]; greater than 100 µM in test [4]; 30.5 µM in test [5]; greater than 100 µM in test [6]. The TGI in test [7] is 79.1 µM; in test [8], greater than 100 µM.
For the molecule `Cc1ccc(F)c(NC(=O)Nc2ccc(-c3cccc4[nH]nc(N)c34)cc2)c1`, the GI50 is 4.72 µM and 3.54 µM in test [1]; 2.67 µM and 2.87 µM in test [2]; 3.12 µM and 3.5 µM in test [3]; 3.79 µM and 3.96 µM in test [4]; 1.87 µM and 2.19 µM in test [5]; 2.52 µM and 2.79 µM in test [6]. Besides, the GI50 in test [7] is 3.27 µM and 4.2 µM; in test [8], 3.16 µM and 3.54 µM. For the same molecule, the TGI is 15.3 µM and > 10 µM in test [1]; 5.89 µM and 9.2 µM in test [2]; 11.4 µM and > 10 µM in test [3]; 15.8 µM and > 10 µM in test [4]; 3.79 µM and 5.28 µM in test [5]; 6.67 µM and 7.81 µM in test [6]. The TGI was 11.7 µM and > 10 µM in test [7]; 13 µM and > 10 µM in test [8].
On to `COC1=CC(c2ccc[nH]2)=N/C1=C\c1[nH]c(C)c(C(=O)CCC(=O)Oc2ccc3c(c2)CCC2C3CC[C@]3(C)[C@@H](O)CC[C@@H]23)c1C` (stereo not given in full), for which the GI50 in test [1] was 4.56 µM; in test [2] it was 3.52 µM; in test [3] it was 1.03 µM; in test [4] it was 4.13 µM; in test [5], 1.99 µM; in test [6] it was 4.05 µM. Further, the GI50 in test [7] is 1.7 µM; in test [8] it was 5.06 µM. The TGI in test [1] is 58.4 µM; in test [2], 17.8 µM; in test [3], 3.57 µM; in test [4], 72.6 µM; in test [5], 6.5 µM; in test [6] it was greater than 100 µM. Further, the figures for the TGI in test [7] and in test [8] were 4.62 µM and greater than 100 µM, respectively.
Regarding `COc1ccc(-c2cc(/C=C3\C(=O)Nc4cc(Cl)ccc43)[nH]n2)cc1`, the GI50 is 1.78 µM in test [1]; 4.35 µM in test [2]; 3.63 µM in test [3]; 4.65 µM in test [4]; 1.88 µM in test [5]; 8.72 µM in test [6]. Further, the GI50 in test [7] is 2.46 µM; in test [8] it was 6.69 µM. In addition, the TGI in test [1] was 6.96 µM; in test [2], greater than 100 µM; in test [3], greater than 100 µM; in test [4] it was greater than 100 µM; in test [5], 6.77 µM; in test [6], 68.7 µM. In addition, the TGI in test [7] and in test [8] was greater than 100 µM each time.
Regarding `CC1=C/C=C/C(=O)O[C@@H]([C@H](C)[C@H](O)[C@@H](C)NC(=O)C(C)C)[C@H](C)/C=C/C(C)=C/[C@H]2C=CCC[C@@]2(C)\C=C\1`, the TGI in test [1] is greater than 42.3 µM; in test [2], 20.4 µM; in test [3] it was 6.3 µM; in test [4], 25.9 µM; in test [5], 13.6 µM; in test [6] it was 23.5 µM. Besides, the TGI in test [7] was 8.98 µM; in test [8], 8.46 µM. The GI50 in test [2] was 6.98 µM; in test [3] it was 0.0446 µM and 0.0232 µM; in test [4], 2.01 µM and 0.736 µM; in test [5], 4.97 µM and 2.06 µM; in test [6], 0.561 µM and 4.67 µM; in test [7] it was 0.418 µM and 0.62 µM. The GI50 in test [8] is 0.806 µM and 0.275 µM.
Turning to `COc1cc(OC)cc(Oc2cnc3cc(N)cc(N)c3n2)c1`, the GI50 in test [1] was 3.92 µM; in test [2], 19.7 µM; in test [3] it was 6.47 µM; in test [4], 17.5 µM; in test [5], 18.7 µM; in test [6], 14.6 µM. In addition, the GI50 in test [7] was 14.4 µM; in test [8] it was 15.8 µM. Further, the TGI was found to be 18.6 µM in test [1]; 43.3 µM in test [2]; 20.2 µM in test [3]; 45.6 µM in test [4]; 37.3 µM in test [5]; 28.8 µM in test [6]. Also, the TGI amounted to 27.8 µM in test [7] and 29.3 µM in test [8].
For `Cc1ccccc1C1=C(c2cn(C)c3ccccc23)C(=O)NC1=O`, the GI50 in test [1] is 0.644 µM; in test [2], 24.9 µM; in test [3] it was 7.77 µM; in test [4], greater than 25 µM; in test [5], greater than 22.6 µM; in test [6] it was greater than 25 µM. For the same molecule, the GI50 in test [7] is greater than 20.5 µM; in test [8], greater than 22.7 µM. In addition, the TGI in test [1], in test [2], in test [3], in test [4], in test [5] and in test [6] was greater than 25 µM each time. Moreover, the TGI in test [7] and in test [8] was greater than 25 µM throughout.
Take `Oc1cc(N2CC2)c(O)cc1N1CC1`: the GI50 is 1.14 µM in test [1]; 1.46 µM in test [2]; 0.615 µM in test [3]; 1.78 µM in test [4]; 0.287 µM in test [5]; 1.49 µM in test [6]. Moreover, the values for the GI50 in test [7] and in test [8] were 0.918 µM and 0.586 µM, respectively. For the same molecule, the TGI in test [1] came to 2.6 µM; in test [2], 4.55 µM; in test [3], 10.8 µM; in test [4], 13.5 µM; in test [5], 1.48 µM; in test [6], 2.98 µM. Moreover, the values for the TGI in test [7] and in test [8] were 2.91 µM and 5.07 µM, respectively.
With `CC1(C)CC(=O)C=C(/C=C/Sc2c(Cl)c(Cl)nc(Cl)c2Cl)C1`, the GI50 in test [1] is 15.9 µM; in test [2], 70.2 µM; in test [3], 3.85 µM; in test [4], 15.9 µM; in test [5], 6.17 µM; in test [6] it was 9.46 µM. The GI50 in test [7] is 8.48 µM; in test [8], 4.56 µM. The TGI in test [1] was 31.5 µM; in test [2] it was greater than 100 µM; in test [3], 13.3 µM; in test [4], 29.5 µM; in test [5] it was 37 µM; in test [6], 21.3 µM. In addition, the TGI in test [7] turned out to be 20.8 µM; in test [8] it was 16.3 µM.
